Data reported in BindingDB's records for doi:10.1016/j.bmc.2009.10.032 (NIH, 2009).

What was measured:
[1] = biological target: E3 ubiquitin-protein ligase Mdm2 (Homo sapiens, UniProt Q00987); experiment: Fluorescence Anisotropy Competition Binding Assay
Procedure: (§1) Inhibitory activities of NAPAs were measured by fluorescence anisotropy competition experiments. Protein was incubated with fluorescein-labeled human p53 peptide in the presence of test compound. Experiments were performed with a 70-fold molar excess of protein over labeled p53-peptide to ensure that the peptide is completely bound by the protein. […] Fluorescence anisotropy was measured at 25 deg C on a Beacon 2000 (PanVera, Madison, WI). Data points were measured in triplicate. IC50 values were calculated by nonlinear regression curve fitting.

Protein Mdm4 = biological target: T1, Protein Mdm4 (Homo sapiens, UniProt O15151); experiment: Fluorescence Anisotropy Competition Binding Assay
T1 sequence (O15151 whole entry): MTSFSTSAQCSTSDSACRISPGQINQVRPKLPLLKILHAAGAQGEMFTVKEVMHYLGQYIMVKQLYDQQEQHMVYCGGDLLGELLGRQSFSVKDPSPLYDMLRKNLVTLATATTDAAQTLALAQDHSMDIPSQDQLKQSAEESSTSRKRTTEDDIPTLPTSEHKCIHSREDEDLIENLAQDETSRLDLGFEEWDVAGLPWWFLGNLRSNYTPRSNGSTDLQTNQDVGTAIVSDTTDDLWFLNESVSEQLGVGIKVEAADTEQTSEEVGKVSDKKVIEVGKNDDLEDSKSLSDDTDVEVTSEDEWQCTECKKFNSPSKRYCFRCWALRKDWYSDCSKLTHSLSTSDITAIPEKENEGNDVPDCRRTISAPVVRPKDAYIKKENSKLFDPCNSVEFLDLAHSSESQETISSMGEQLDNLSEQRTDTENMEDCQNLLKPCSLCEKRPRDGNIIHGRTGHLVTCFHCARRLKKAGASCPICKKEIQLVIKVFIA
Procedure: as §1

E3 ubiquitin-protein ligase Mdm2, sequence (Q00987 whole entry): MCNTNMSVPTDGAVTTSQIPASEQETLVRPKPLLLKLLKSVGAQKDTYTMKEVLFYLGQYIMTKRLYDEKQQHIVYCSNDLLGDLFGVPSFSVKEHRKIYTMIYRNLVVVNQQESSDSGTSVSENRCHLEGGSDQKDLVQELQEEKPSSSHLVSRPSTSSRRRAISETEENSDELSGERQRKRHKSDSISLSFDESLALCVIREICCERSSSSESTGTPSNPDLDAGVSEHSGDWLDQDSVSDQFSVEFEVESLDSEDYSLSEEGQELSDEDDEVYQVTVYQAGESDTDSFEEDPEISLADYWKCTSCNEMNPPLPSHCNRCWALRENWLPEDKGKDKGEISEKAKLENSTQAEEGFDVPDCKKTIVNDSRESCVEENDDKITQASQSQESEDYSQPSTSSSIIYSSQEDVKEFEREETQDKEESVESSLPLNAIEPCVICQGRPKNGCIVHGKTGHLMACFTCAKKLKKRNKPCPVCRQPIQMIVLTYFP

| IC50 ([1]; pH 7.6, 23 °C) | IC50 (Protein Mdm4) | IC50 [1] | Structure (SMILES) |
| --- | --- | --- | --- |
| 10.5 µM | 7.6 µM | – | NCCCCC(CN(C(=O)NCCc1ccc(Br)cc1)C(CCC(=O)O)CN(CCC(N)=O)C(=O)NCCCc1ccc(Br)cc1)N(CC(CCC(=O)O)NC(=O)Nc1ccccc1)C(=O)NCCCC1CCCCC1 (centres undefined) [N-acylpolyamine (NAPA) scaffold, 19] |
| – | > 100 µM | > 100 µM | CC(C)CCC(=O)NC(CCC(=O)O)CN(CCCCCC1CCCCC1)C(CCCCN)CN(CCCCc1ccc(Br)cc1)C(CCC(=O)O)CN(CCCCCc1ccc(F)cc1)CCC(N)=O (centres undefined) [N-acylpolyamine (NAPA) scaffold, 36] |
